Results: patent US9643964B2, “3-(2-aminopyrimidin-4-yl)-5-(3-hydroxypropynyl)-1H-pyrrolo[2,3-C]pyridine derivatives as NIK inhibitors for the treatment of cancer” (Janssen Pharmaceutica NV, priority 2013, dated 2017)

Assays:
[1] = test system: P-IKKα levels in L363 cells; test: Biological Assay B: effect of compounds on P-IKKα levels in L363 cells; type: cell-based; conditions: Homo sapiens, L-363, averaged values, read-out: IKKα Cellular IC50
Description: Effect of Compounds on P-IKKα Levels in L363 Cells
All compounds tested were dissolved in DMSO and further dilutions were made in culture medium. Final DMSO concentration was 1% (v/v) in cell assays. The human L363 cells (ATCC) were cultured in RPMI 1640 medium supplemented with GlutaMax and 10% fetal calf serum (PAA). Cells were routinely maintained at densities of 0.2×10^6 cells per ml-1×10^6 cells per ml at 37° C. in a humidified 5% CO2 atmosphere. Cells were passaged twice a week splitting back to obtain the low density. Cells were seeded in 96 well plates (Nunc 167008) at 2×10^6 per ml media in a volume of 75 μl per well plus 25 μl 1 μg/ml recombinant human B-cell activating factor BAFF/B1YS/TNFSF13B. Seeded cells were incubated at 37° C. in a humidified 5% CO2 atmosphere for 24 hr. Drugs and/or solvents were added (20 μl) to a final volume of 120 μl. Following 2 hr treatment plates were removed from the incubator and cell lysis was achieved by the addition of 30 μl 5× lysis buffer followed by shaking on a plate shaker at 4° C. for 10 min. At the end of this incubation lysed cells were centrifuged at 800×g for 20 min at 4° C. and the lysate was assessed for P-IKKα levels by sandwich immuno-assay carried out in anti-rabbit antibody coated Mesoscale plates. Within an experiment, the results for each treatment were the mean of 2 replicate wells. For initial screening purposes, compounds were tested using an 8 point dilution curve (serial 1:3 dilutions). For each experiment, controls (containing MG132 and BAFF but no test drug) and a blank incubation (containing MG132 and BAFF and 10 μM ADS125117, a test concentration known to give full inhibition) were run in parallel. The blank incubation value was subtracted from all control and sample values. To determine the IC50 a sigmoidal curve was fitted to the plot of % inhibition of control P-IKKα levels versus Log10 compound concentration.

JJN-3 cells = test: Biological Assay C: antiproliferative activity on JJN-3 cells (CellTiter-Glo); type: cell-based, human; conditions: Homo sapiens, JJN-3, 72 h, 72 hr treatment; averaged values
How it was run: (§1)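 Luminescent ATP signal (CellTiter-Glo) measures growth of myeloma cells following a 72 h compound treatment. Values for the time-zero blank are subtracted, and each mean of duplicate wells is given as percentage of the no-drug control.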

[2] = target: T1, Recombinant Human NF-kappaB-Inducing Kinase (NIK/MAP3K14) (Homo sapiens, UniProt Q99558); test: Biological Assay A: inhibition of recombinant human NIK/MAP3K14 activity (MBP phosphorylation, Mesoscale); type: biochemical; conditions: averaged over all measurements on all batches; read-out: Biochemical (MSD MBP) IC50
T1 sequence (Q99558 whole entry): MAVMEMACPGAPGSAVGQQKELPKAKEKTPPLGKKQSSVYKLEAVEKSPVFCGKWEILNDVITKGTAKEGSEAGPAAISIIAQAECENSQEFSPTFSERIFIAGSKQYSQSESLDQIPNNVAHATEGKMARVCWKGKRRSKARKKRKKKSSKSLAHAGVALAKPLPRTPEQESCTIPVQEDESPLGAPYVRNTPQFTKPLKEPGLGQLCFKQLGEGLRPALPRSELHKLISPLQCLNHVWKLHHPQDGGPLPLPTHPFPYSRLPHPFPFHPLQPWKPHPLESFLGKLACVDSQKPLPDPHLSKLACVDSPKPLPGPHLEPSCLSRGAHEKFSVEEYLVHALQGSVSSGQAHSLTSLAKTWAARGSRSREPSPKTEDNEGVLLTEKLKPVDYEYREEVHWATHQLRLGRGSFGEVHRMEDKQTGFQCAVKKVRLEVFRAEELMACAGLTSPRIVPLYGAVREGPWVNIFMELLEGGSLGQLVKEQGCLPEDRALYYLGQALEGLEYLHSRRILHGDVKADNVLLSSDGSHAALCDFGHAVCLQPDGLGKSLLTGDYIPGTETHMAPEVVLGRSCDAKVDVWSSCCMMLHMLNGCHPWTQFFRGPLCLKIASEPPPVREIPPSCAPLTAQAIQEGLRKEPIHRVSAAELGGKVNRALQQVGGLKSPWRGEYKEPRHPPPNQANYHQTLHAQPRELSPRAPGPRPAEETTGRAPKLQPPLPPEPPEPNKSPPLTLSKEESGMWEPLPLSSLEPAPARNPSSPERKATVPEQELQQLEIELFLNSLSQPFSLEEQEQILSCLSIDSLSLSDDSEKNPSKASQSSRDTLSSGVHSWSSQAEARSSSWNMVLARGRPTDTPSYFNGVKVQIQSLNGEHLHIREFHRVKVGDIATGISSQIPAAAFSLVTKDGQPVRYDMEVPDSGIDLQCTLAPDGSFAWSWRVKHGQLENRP
Description: Inhibition of Recombinant Human NF-kappaB-Inducing Kinase (NIK/MAP3K14) Activity
Assay buffer was 50 mM Tris pH 7.5 containing 1 mM EGTA (ethylene glycol tetraacetic acid), 1 mM DTT (dithiothreitol), 0.1 mM Na3VO4, 5 mM MgCl2, 0.01% Tween 20. Assays were carried out in 384 well Mesoscale high binding plates which had been coated with myelin basic protein (MBP) and blocked with bovine serum albumin to prevent non-specific protein binding. All compounds tested were dissolved in dimethyl sulfoxide (DMSO) and further dilutions were made in assay buffer. Final DMSO concentration was 1% (v/v) in assays. Incubations consisted of compound (1% DMSO in control and blank wells), 25 μM Adenosine-5′-triphosphate (ATP), and 10 nM NIK/MAP3K14 substituting enzyme with buffer in the blank wells. Incubations were carried out for 1 h at 25° C. and were followed by washing and sequential incubation with rabbit anti-phospho-MBP and anti-rabbit Ig Sulfotag antibody before reading bound Sulfotag on a Mesoscale Discovery. Signal obtained in the wells containing blank samples was subtracted from all other wells and IC50's were determined by fitting a sigmoidal curve to % inhibition of control versus Log10 compound concentration.

[3] = target: T1, Recombinant Human NF-kappaB-Inducing Kinase (NIK/MAP3K14); test: Biological Assay A2: inhibition of auto-phosphorylation of recombinant human NIK/MAP3K14 (AlphaScreen); type: biochemical; conditions: auto-phosphorylation; averaged over all measurements on all batches; read-out: αscreen IC50
How it was run: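 AlphaScreen readout of anti-phospho-IKK Ser176/180 signal after 1 h, 25° C. incubation of 0.2 nM GST-NIK with compound and 25 microM ATP (Tris pH 7.5 buffer, MgCl2, 1% DMSO final). IC50 from sigmoidal fit of blank-corrected % inhibition against Log10 concentration.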

L-363 cells = test: Biological Assay C: antiproliferative activity on L-363 cells (CellTiter-Glo); type: cell-based, human; conditions: Homo sapiens, L-363, 72 h, 72 hr treatment; averaged values
How it was run: as §1

LP-1 cells = test: Biological Assay C: antiproliferative activity on LP-1 cells (CellTiter-Glo); type: cell-based, human; conditions: Homo sapiens, LP-1, 72 h, 72 hr treatment; averaged values
How it was run: as §1

Structure (SMILES)	IC50 [1] [nM]	IC50 [2] [nM]	IC50 [3] [nM]	EC50 (JJN-3 cells) [nM]	EC50 (L-363 cells) [nM]	EC50 (LP-1 cells) [nM]
CC(C)(O)Cn1cc(-c2ccnc(N)n2)c2cc(C#CC3(O)CCCCC3)ncc21 [Compound 38]	370	21	56	1900	15000	> 10000
CC(C)(O)Cn1cc(-c2nc(N)ncc2Cl)c2cc(C#CC3(O)CCCC3)ncc21 [Compound 33]	53	4.2	16	150	1100	4100
CCNc1nccc(-c2c[nH]c3cnc(C#CC(C)(C)O)cc23)n1 [Compound 48]	260	65	16	380	650	3900
COCCn1cc(-c2ccnc(N)n2)c2cc(C#CC(C)(O)c3nccs3)ncc21 (stereo not drawn) [Compound 26]	120	49	19	5600	11000	15000
CC(C)(O)C#Cc1cc2c(-c3ccnc(N)n3)cn(CCS(C)(=O)=O)c2cn1 [Compound 67]	880	57	30	2400	2400	> 10000
COCCn1cc(-c2nc(N)ncc2C#N)c2cc(C#CC(C)(C)O)ncc21 [Compound 41]	43	3.5	9	240	290	2200
CC(C)(O)C#Cc1cc2c(-c3nc(N)ncc3C(F)(F)F)c[nH]c2cn1 [Compound 61]	23	3.8	5	260	340	4600
CNC(=O)CCn1cc(-c2ccnc(N)n2)c2cc(C#CC(C)(C)O)ncc21 [Compound 49]	5900	150	360	32000	> 10000	> 10000
CC(C)n1cc(-c2ccnc(N)n2)c2cc(C#CC(C)(C)O)ncc21 [Compound 15]	16	4.8	12	120	44	370
CNc1nccc(-c2cn(CC(C)(C)O)c3cnc(C#CC(C)(C)O)cc23)n1 [Compound 68]	360	130	47	1500	960	16000
COCCNC(=O)c1[nH]c2cnc(C#CC(C)(C)O)cc2c1-c1ccnc(N)n1 [Compound 52]	99	29	33	1200	3200	30000
CC(C)n1cc(-c2nc(N)ncc2Cl)c2cc(C#CC3(O)CCCC3)ncc21 [Compound 19]	18	5.3	16	160	430	1200
COCCn1cc(-c2ccnc(N)n2)c2cc(C#CC(C)(C)O)ncc21 [Compound 2]	82	9.7	48	220	210	1900
CC(C)(O)C#Cc1cc2c(-c3ccnc(N)n3)c[nH]c2cn1 [Compound 1]	93	6.9	4	200	180	3200
CC(C)(O)C#Cc1cc2c(-c3nc(N)ncc3Cl)c[nH]c2cn1 [Compound 14]	11	0.9	0.4	75	75	390
CC(C)(O)C#Cc1cc2c(-c3ccnc(N)n3)cn(CCCN3CC(=O)NC3=O)c2cn1 [Compound 117]	3400	100	14	3300	9000	> 10000
CC(C)(O)C#Cc1cc2c(-c3ccnc(N)n3)cn(CC#N)c2cn1 [Compound 56]	140	25	18	840	840	14000
CC(C)n1cc(-c2nc(N)ncc2Cl)c2cc(C#CC(C)(C)O)ncc21 [Compound 16]	7.3	4.3	2	35	57	92
Cc1c(-c2ccnc(N)n2)c2cc(C#CC(C)(C)O)ncc2n1CC(C)(C)O [Compound 46]	180	60	55	1100	3600	> 10000
CC(C)(O)C#Cc1cc2c(-c3ccnc(N)n3)cn(CCN3CC(=O)NC3=O)c2cn1 [Compound 116]	5300	120	170	5600	11000	> 10000

More lines, main results first:

IC50 [1] [nM]	IC50 [2] [nM]	IC50 [3] [nM]	Structure (SMILES)	EC50 (JJN-3 cells) [nM]	EC50 (L-363 cells) [nM]	EC50 (LP-1 cells) [nM]
75	15	34	CC(C)(O)C#Cc1cc2c(-c3ccnc(N)n3)cn(CC(C)(C)O)c2cn1 [Compound 3]	500	230	11000
330	45	100	CC(C)(O)Cn1cc(-c2ccnc(N)n2)c2cc(C#CC(C)(O)C3CCC3)ncc21 (stereo not drawn) [Compound 37]	3600	16000	> 10000
530	43	110	CC(C)C(C)(O)C#Cc1cc2c(-c3ccnc(N)n3)cn(CC(C)(C)O)c2cn1 (stereo not drawn) [Compound 40]	2300	4500	25000
370	45	57	CC(C)(O)Cn1cc(-c2ccnc(N)n2)c2cc(C#CC(C)(O)CC3CC3)ncc21 (stereo not drawn) [Compound 53]	450	> 10000	> 10000
68	2.3	11	CC(C)(O)C#Cc1cc2c(-c3ccnc(N)n3)cn(CC3CCOC3)c2cn1 (stereo not drawn) [Compound 6]	860	790	3000
3800	160	190	CC(C)(O)C#Cc1cc2c(-c3ccnc(N)n3)cn(CC3CCNCC3)c2cn1 [Compound 114]	1600	1500	5500
84	5.7	24	CC(C)(O)Cn1cc(-c2ccnc(N)n2)c2cc(C#CC3(O)CCC3)ncc21 [Compound 42]	330	1500	16000
900	17	86	CC(C)(O)Cn1cc(-c2ccnc(N)n2)c2cc(C#CC(C)(O)c3ccccc3)ncc21 (stereo not drawn) [Compound 36]	1700	7900	12000
360	25	70	CC(C)(O)Cn1cc(-c2ccnc(N)n2)c2cc(C#CC(C)(O)c3nccs3)ncc21 (stereo not drawn) [Compound 27]	9700	> 10000	> 10000
